Article PMC7738508, “A therapeutic combination of two small molecule toxin inhibitors provides broad preclinical efficacy against viper snakebite” (Nature Communications, 2020)

Columns and labels:
E. ocellatus venom = test: in vivo preincubation model of envenoming (i.v.); design: species or system CD-1 mice
Procedure: All animal experiments were conducted using protocols approved by the Animal Welfare and Ethical Review Boards of the Liverpool School of Tropical Medicine and the University of Liverpool, and performed in specific pathogen-free conditions under licensed approval (PPL #4003718 and #P5846F90) of the UK Home Office and in accordance with the Animal [Scientific Procedures] Act 1986 and institutional guidance on animal care. All experimental animals (18–20 g [4–5 weeks old], male, CD-1 mice, Charles River, UK) were housed in groups of five with environmental enrichment, water and food ad libitum and their health monitored daily during acclimatization. The experimental design was based upon 3R-refined WHO-recommended protocols[28],[41], with animals randomized and observers being blinded to the experimental condition. The median lethal doses (venom LD50) used for E. ocellatus (Nigeria), E. carinatus (India), B. asper (Costa Rica), D. russelii (Sri Lanka) and B. arietans (Nigeria) venoms were previously determined[25],[41],[44],[45].
All experimental doses were prepared to a volume of 200 µl in PBS and incubated at 37 °C for 30 min prior to their intravenous injection via the tail vein. Animals were monitored for 6 h, and euthanized via rising concentrations of CO2 upon observation of previously defined humane end points that are predicators of lethality (e.g., seizure, pulmonary distress, paralysis, hemorrhage)[28]. Deaths, time of death, and survivors were recorded; where death/time of death actually represents the implementation of euthanasia based on defined humane end points.
For all experimental animals described above, blood samples were collected via cardiac puncture immediately post-euthanasia. Plasma was separated by centrifugation at 400 × g for 10 min and stored at −80 °C. We assessed the levels of thrombin-antithrombin complexes (TAT) and soluble thrombomodulin using mouse ELISA Kits (ab137994 and ab209880, Abcam), following the manufacturer’s protocol. All available plasma samples (some were unobtainable via cardiac puncture due to extensive internal hemorrhage) were assessed if the time of death within the group varied, whereas three samples were randomly chosen if the time of death was the same (e.g., either very rapid death within 2 min, or survival until the end of the experiment [360 min or 24 h]). The resulting data was plotted as the median of duplicate measurements for each animal and is presented with standard deviations (SDs).

[1] = test system: pro- and anticoagulant fractions of D. russelii venom; test: nanofractionation with plasma coagulation assay; format: biochemical, Daboia russelii; details: nanofractionated D. russelii venom; inhibitor 0.0064 to 20 µM
Procedure: Fifty microlitres of venom solution (D. russelii; 1 mg/ml) was injected into a Shimadzu LC-2010 system with nanofractionation in parallel. Separation was performed on a Waters XBridge reversed-phase C18 column (250 × 4.6 mm^2 column with 3.5 μm pore-size) at 30 °C. The total flow rate of the mobile phase solution was 0.5 ml/min with eluent A (98% H2O, 2% acetonitrile [ACN], 0.1% formic acid [FA]) and eluent B (98% ACN, 2% H2O, 0.1% FA). Liquid chromatography gradients consisted of a linear increase of mobile phase B from 0 to 50% in 20 min, followed by a linear increase to 90% B in 4 min, then isocratic at 90% B for 5 min, after which the percentage of mobile phase B was decreased from 90 to 0% in 1 min, followed by 10 min at 0% B to re-equilibrate. The effluent was split in a 1:9 ratio of which the 10% fraction was sent to a Shimadzu SPD-M20A prominence diode array detector and the 90% fraction was directed to a nanofractionation collector which dispensed the fractions into transparent 384-well plates (F-bottom, rounded square well, polystyrene, without lid, clear, non-sterile; Greiner Bio One, Alphen aan den Rijn, The Netherlands) at a resolution of 6 s/well. The collector used was either a commercially available FractioMate^TM nanofractionator (SPARK-Holland & VU, Netherlands, Emmen & Amsterdam) controlled by FractioMator software v1.0 (Spark-Holland, The Netherlands, Emmen) or a modified Gilson 235P autosampler controlled by in-house written software Ariadne v1.8 (VU Amsterdam). The well plates with venom fractions were then dried overnight in a Christ Rotational Vacuum Concentrator (RVC 2 − 33 CD plus, Zalm en Kipp, Breukelen, The Netherlands) equipped with a cooling trap, and maintained at −80 °C during operation. The freeze-dried plates were then stored at −80 °C prior to bioassaying.
The final assay concentrations of the inhibitors tested in the assay were 20, 4, 0.8, 0.16, 0.032, and 0.0064 µM. The plates were then incubated for 30 min at room temperature, and during this time bovine plasma (Sterile Filtered, Biowest, Nuaille, France) was defrosted in a water bath and centrifuged for 4 min at 805 × g prior to use. […] The plate was then read immediately for absorbance kinetically for 100 min at 595 nm at 25 °C using a Varioskan Flash Multimode Reader (Thermo Fisher Scientific, Ermelo, The Netherlands). The obtained results were normalized by dividing the slope measured in each well by the median of all slope values across the plate, and the processed coagulation chromatograms were plotted to visualize very fast coagulation, medium increased coagulation and anticoagulation, as previously described.

CNC(=O)[C@@H](NC(=O)[C@H](CC(C)C)[C@H](O)C(=O)NO)C(C)(C)C [marimastat] was tested, and the “animals surviving the 6 h experiment (groups of five)” value (E. ocellatus venom; 45 µg E. ocellatus venom preincubated with 60 µg inhibitor/mouse, i.v.) was “four”, the “protection against venom-induced lethality” value (E. ocellatus venom; 45 µg E. ocellatus venom preincubated with 60 µg of each drug, i.v., 6 h) was “prolonged the survival” and the “thrombin-antithrombin (TAT) levels, range in group” value (E. ocellatus venom; plasma after euthanasia, E. ocellatus venom + 60 µg of each drug, venom-only mean 1127.3, normal mice 10.2–15.9) was 231.2 to 267.9 ng/mL. The “inhibition of anticoagulant venom fractions” value [1] was “not neutralized” and the “inhibition of procoagulant venom fractions” value [1] was “effectively inhibited in a dose-dependent manner”.
